# Legend:
# [1] = system: DUX4 mRNA; test: DUX4 mRNA levels by RT-qPCR in differentiating MB200 FSHD2 patient-derived muscle cells; type: cell-based, human; settings: varying concentrations, 24 hours, vs DMSO vehicle set to one
# Procedure: (§1) FIG. 13A-C. CDK7 inhibitor THZ1 reduces DUX4 expression in FSHD cells and cancer cells. (A) Differentiating MB200 FSHD2 patient-derived muscle cells, (B) SuSa testicular teratocarcinoma cells, or (C) KLE endometrial adenocarcinoma cells were treated with vehicle (−, DMSO) or varying concentrations of THZ1, as indicated, for 24 hours (A) or 20 hours (B-C) and cultures analyzed for DUX4 mRNA levels by RT-qPCR. […] Data are represented as relative expression (means, with error bars indicating standard deviation across three biological replicates) with expression in the absence of inhibitor set to one. FSHD muscle cells utilize DUX4 exon 3, while SuSa cells and KLE cells use DUX4 exon 3b.
# (§2) Total RNA was extracted from whole cells using the NucleoSpin RNA kit (Machery-Nagel) according to the manufacturer's instructions. Isolated RNA was treated with DNase I (Thermo Fisher Scientific), heat inactivated, and reverse transcribed into cDNA using SuperScript III (Thermo Fisher Scientific) and oligo(dT) primers (Invitrogen) following the manufacturer's protocol. Quantitative PCR was carried out on a QuantStudio 7 Flex (Applied Biosystems) using primers specific for each mRNA and iTaq SYBR Green Supermix (Bio-Rad Laboratories, Inc.). […]
# (§3) Next, the cells were analyzed for DUX4 mRNA levels by RT-qPCR.
# [2] = system: DUX4 mRNA; test: DUX4 mRNA levels by RT-qPCR in SuSa testicular teratocarcinoma cells; type: cell-based, human; settings: varying concentrations, 20 hours, vs DMSO vehicle set to one
# Procedure: as §1, §2, §3
# [3] = system: DUX4 mRNA; test: DUX4 mRNA levels by RT-qPCR in KLE endometrial adenocarcinoma cells; type: cell-based, human; settings: varying concentrations, 20 hours, vs DMSO vehicle set to one
# Procedure: as §1, §2, §3
# [4] = biological target: p38α (Homo sapiens, UniProt Q16539); settings: fold selective over p38β; cited from earlier work
# p38α, sequence (Q16539 whole entry): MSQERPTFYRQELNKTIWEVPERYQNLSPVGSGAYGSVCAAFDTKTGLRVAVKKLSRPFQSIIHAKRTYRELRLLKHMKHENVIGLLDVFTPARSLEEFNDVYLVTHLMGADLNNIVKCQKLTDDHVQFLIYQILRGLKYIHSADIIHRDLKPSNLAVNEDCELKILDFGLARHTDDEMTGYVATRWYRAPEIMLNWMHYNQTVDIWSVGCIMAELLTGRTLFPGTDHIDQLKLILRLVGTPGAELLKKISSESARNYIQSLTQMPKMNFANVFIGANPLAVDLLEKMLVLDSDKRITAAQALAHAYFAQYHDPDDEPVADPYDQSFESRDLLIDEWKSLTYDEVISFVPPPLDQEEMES
SMILES,DUX4 mRNA levels (relative expression) [1],DUX4 mRNA levels (relative expression) [2],DUX4 mRNA levels (relative expression) [3],Selectivity for p38α over p38β [4]
CN(C)C/C=C/C(=O)Nc1ccc(C(=O)Nc2cccc(Nc3ncc(Cl)c(-c4c[nH]c5ccccc45)n3)c2)cc1 [THZ1],inhibits DUX4 expression,inhibits DUX4 expression,inhibits DUX4 expression,
NC(=O)c1ccc(N(C(N)=O)c2c(F)cccc2F)nc1-c1ccc(F)cc1F [VX-702],,,,p38α14X selective over p38β
O=c1ncn2nc(Sc3ccc(F)cc3F)ccc2c1-c1c(Cl)cccc1Cl [VX-745],,,,p38α22X selective over p38β

# — patent publication US20220202845A1, “METHODS AND COMPOSITIONS FOR TREATING CANCER” (Fred Hutchinson Cancer Research Center, priority 2018, published 2022)
